Source: patent publication US20240150365A1 (Hotspot Therapeutics, Inc., priority 2022, published 2024)
pIC50: −log10 of the molar value. Read-outs that look alike come from different tables or passages of the source.

Tests used:
MALT1 = biological target: T1, MALT1 (Homo sapiens, UniProt Q9UDY8); test: MALT-1 Fluorogenic Peptide Cleavage Assay (MALT1 inhibition assay); type: biochemical; details: Avi-tagged FL MALT-1, Ac-LRSR-AMC peptide substrate, 30 min pre-incubation, 90 min reaction
T1 construct: Avi-tagged FL MALT-1 (Pharmaron, stored at −70° C.); Avi tag
T1 sequence (Q9UDY8 1-824): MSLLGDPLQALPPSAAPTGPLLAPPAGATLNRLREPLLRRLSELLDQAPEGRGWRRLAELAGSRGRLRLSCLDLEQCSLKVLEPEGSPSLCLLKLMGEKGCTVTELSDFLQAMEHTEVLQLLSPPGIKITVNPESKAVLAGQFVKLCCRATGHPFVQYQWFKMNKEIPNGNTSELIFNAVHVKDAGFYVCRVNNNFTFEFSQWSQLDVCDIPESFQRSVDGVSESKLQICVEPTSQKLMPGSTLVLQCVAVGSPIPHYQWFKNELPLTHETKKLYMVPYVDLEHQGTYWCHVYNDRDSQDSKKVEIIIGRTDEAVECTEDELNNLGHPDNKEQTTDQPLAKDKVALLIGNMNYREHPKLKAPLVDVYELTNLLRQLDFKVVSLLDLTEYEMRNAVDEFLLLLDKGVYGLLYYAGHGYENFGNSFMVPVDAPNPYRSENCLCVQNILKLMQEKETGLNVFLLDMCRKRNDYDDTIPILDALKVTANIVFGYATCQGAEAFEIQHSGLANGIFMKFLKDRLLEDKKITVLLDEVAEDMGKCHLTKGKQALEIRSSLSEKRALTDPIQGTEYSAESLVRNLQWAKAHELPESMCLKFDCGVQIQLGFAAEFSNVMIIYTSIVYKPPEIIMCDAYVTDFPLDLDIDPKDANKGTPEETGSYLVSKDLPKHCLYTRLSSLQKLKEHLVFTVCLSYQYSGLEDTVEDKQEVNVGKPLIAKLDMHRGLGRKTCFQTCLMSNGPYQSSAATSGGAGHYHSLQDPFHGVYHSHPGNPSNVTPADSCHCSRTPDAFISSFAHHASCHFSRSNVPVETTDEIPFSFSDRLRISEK
Experimental: Inhibition of MALT1 activity by the presence of small molecules was evaluated using MALT-1 Fluorogenic Peptide Cleavage Assay. The assay utilizes a quenched AMC-labelled peptide that contains the MALT-1 recognition sequence and cleavage site (LRSR). MALT-1 mediated cleavage of the peptide relieves the quenching and leads to an increase in fluorescence at excitation (342 nm) and emission (441 nm). The following reagents were obtained commercially and used to prepare standard reagent formulations as further described below: […] The standard reagent formulations used in this assay were prepared and stored as follows. A 1.1 M solution of sodium citrate (161.3 g, 500 mL) was prepared and stored at room temperature. A 10% (w/v) CHAPS solution (2.0 g, 20 mL) was prepared and stored at 4° C. A 500 mM HEPES solution having pH of 6.89 was prepared from 200 mL of a 1 M HEPES solution having a pH of 7.5 using concentrated hydrochloric acid and brought to a final volume of 400 mL with […]® H2O. The substrate, 10 mM Ac-LRSR-AMC Peptide, was prepared (10 mg, 1.370 mL DMSO) and stored at -20° C. Compounds were plated to provide a 2% DMSO final concentration using a ProxiPlate-384 Plus F Black 384-shallow well microplate. The assay-ready plates were equilibrated to room temperature. […] DMSO was added only when compound plates had not been DMSO-backfilled to 2%. MALT-1 was thawed and kept on ice. Peptide substrate was thawed on the bench under ambient conditions. A MALT-1 enzyme working stock was prepared from Avi-tagged FL MALT-1 (40 nM in a prepared reagent volume of 16.5 μL) and the reaction buffer (13.0 mL). MALT1 working stock (5 μL) was added to each well of the microplate. MALT-1 was pre-incubated with compounds for 30 minutes at room temperature. […] The plates were covered and incubated on the bench at room temperature for 90 minutes. Fluorescence intensity was determined using a CLARIOstar microplate reader (BMG LABTECH) using the optimised AMC mode. Before taking readings, a 70% gain was applied on the neutral control well. Compound data were normalised to % Inhibition and used to plot sigmoidal concentration response curves to yield various parameters including IC50. […] Compounds in which an IC50 was not measured are designated as “N/A”.

NF-kB = NF-kB reporter assay in Jurkat cells stimulated with aCD3/aCD28/PMA; type: cell-based; details: Homo sapiens, Jurkat, read-out: NF-kB Reporter Assay IC50
Experimental: Jurkat cells were maintained in complete RPMI 1640 media supplemented with 10% FBS. Prior to the assay, 120 nL of the serial diluted compound was added in each well of 384-well flat bottom white plate (Corning #3570) by using liquid handler Echo550. Jurkat cells were harvested by centrifugation at 120 g for 10 min and resuspended in fresh RPMI 1640 media without serum. 30 μL of cells (25,000 cells) were seeded in each well of 384-well plate containing compound. After 1 hr incubation at 37° C. in a 5% CO2 incubator, 10 μL of diluted aCD3/aCD28/PMA (final concentration at 5 μg/mL, 5 μg/mL and 0.03 μg/mL, respectively) in RPMI 1640 without serum were added to each well. After incubation at 37° C. in 5% CO2 for 4 hr, 30 μL of One-Glo reagent (Promega #E6120) was added into each well. The plate was left at room temperature for 5 min and the signal was measured on EnVision (PerkinElmer).
Compounds in which an IC50 was not measured are designated as “N/A”.

[1] = Jurkat cells, 1 hr compound incubation, aCD3/aCD28/PMA stimulation 4 hr, One-Glo readout

Structure (SMILES) | pIC50 (MALT1) | pIC50 (NF-kB; [1]) | pIC50 (NF-kB)
Cn1ncc2cccc(NS(=O)(=O)c3ccc(-c4cccnc4Cl)nc3)c21 [Example I-220, 2′-Chloro-N-(1-Methyl-1H-Indazol-7-yl)-[2,3′-Bipyridine]-5-Sulfonamide] | < 5.60 | 6.00 to 6.40 | 
COCCn1ncc2cccc(NS(=O)(=O)c3ccc(-c4cnn(C)c4C)nc3)c21 [Example I-218, 6-(1,5-Dimethyl-1H-Pyrazol-4-yl)-N-(1-(2-Methoxyethyl)-1H-Indazol-7-yl)Pyridine-3-Sulfonamide] | < 5.60 | < 5.60 | 
COc1ccc2cnn(C)c2c1NS(=O)(=O)c1ccc(-n2cc(C)cn2)nc1 [Example I-14, N-(6-Methoxy-1-Methyl-1H-Indazol-7-yl)-6-(4-Methyl-1H-Pyrazol-1-yl)Pyridine-3-Sulfonamide] | > 6.40 | > 6.40 | 
Cn1cc(-c2ccc(S(=O)(=O)Nc3cccc4cnn(C)c34)cn2)nc1C(F)(F)F [Example I-228, N-(1-Methyl-1H-Indazol-7-yl)-6-(1-Methyl-2-(Trifluoromethyl)-1H-Imidazol-4-yl)Pyridine-3-Sulfonamide] | 5.60 to 6.00 | > 6.40 | 
Cn1nnc2cccc(NS(=O)(=O)c3ccc(-n4cc(C(F)(F)F)cn4)nc3)c21 [Example I-64, N-(1-Methyl-1H-Benzo[D][1,2,3]Triazol-7-yl)-6-(4-(Trifluoromethyl)-1H-Pyrazol-1-yl)Pyridine-3-Sulfonamide] | < 5.60 | < 5.60 | 
COc1ccc2cnn(C)c2c1NS(=O)(=O)c1ccc(-c2cc(C(F)(F)F)n(C)n2)nc1 [Example I-49, N-(6-Methoxy-1-Methyl-1H-Indazol-7-yl)-6-(1-Methyl-5-(Trifluoromethyl)-1H-Pyrazol-3-yl)Pyridine-3-Sulfonamide] | > 6.40 | > 6.40 | 
COc1nn(C)cc1-c1ccc(S(=O)(=O)Nc2cccc3cnn(C)c23)cn1 [Example I-125, 6-(3-Methoxy-1-Methyl-1H-Pyrazol-4-yl)-N-(1-Methyl-1H-Indazol-7-yl)Pyridine-3-Sulfonamide] | < 5.60 | > 6.40 | 
Cc1n[nH]c2cccc(NS(=O)(=O)c3ccc(-n4cc(C(F)(F)F)cn4)nc3)c12 [Example I-24, N-(3-Methyl-1H-Indazol-4-yl)-6-(4-(Trifluoromethyl)-1H-Pyrazol-1-yl)Pyridine-3-Sulfonamide] | 5.60 to 6.00 | > 6.40 | 
COc1ccc2cnn(C)c2c1NS(=O)(=O)c1ccc(-n2ccn(C)c2=O)nc1 [Example I-160, N-(6-Methoxy-1-Methyl-1H-Indazol-7-yl)-6-(3-Methyl-2-Oxo-2,3-Dihydro-1H-Imidazol-1-yl)Pyridine-3-Sulfonamide] | 5.60 to 6.00 | > 6.40 | 
Cn1ncc2cccc(NS(=O)(=O)c3ccc(-n4cc(C(C)(C)O)cn4)nc3)c21 [Example I-277] | < 5.60 | 6.00 to 6.40 | 
COc1ccc2cnn(C)c2c1N(C)S(=O)(=O)c1ccc(-c2cc(C(F)(F)F)nn2C)nc1 [Example I-104, N-(6-Methoxy-1-Methyl-1H-Indazol-7-yl)-N-Methyl-6-(1-Methyl-3-(Trifluoromethyl)-1H-Pyrazol-5-yl)Pyridine-3-Sulfonamide] | > 6.40 | > 6.40 | 
COc1ccc2cnn(C)c2c1NS(=O)(=O)c1ccc(-n2cccn2)nc1 [Example I-15, N-(6-Methoxy-1-Methyl-1H-Indazol-7-yl)-6-(1H-Pyrazol-1-yl) Pyridine-3-Sulfonamide] | 5.60 to 6.00 | > 6.40 | 
COc1ccc2cnn(C)c2c1NS(=O)(=O)c1ccc(-c2csc(C)n2)nc1 [Example I-173, N-(6-methoxy-1-methylindazol-7-yl)-6-(2-methyl-1,3-thiazol-4-yl)pyridine-3-sulfonamide] | > 6.40 |  | > 6.40
CCc1ccc2cnn(C)c2c1NS(=O)(=O)c1ccc(-c2cc(C(F)(F)F)n[nH]2)nc1 [Example I-1] | > 6.40 | > 6.40 | 
Cn1ncc2cccc(NS(=O)(=O)c3ccc(-c4cc5ccccc5[nH]4)nc3)c21 [Example I-76, 6-(1H-Indol-2-yl)-N-(1-Methyl-1H-Indazol-7-yl)Pyridine-3-Sulfonamide] | < 5.60 | > 6.40 | 
Cn1cc2ccc(Cl)c(NS(=O)(=O)c3ccc(-n4cc(C(F)(F)F)cn4)nc3)c2n1 [Example I-25, N-(6-Chloro-2-Methyl-2H-Indazol-7-yl)-6-(4-(Trifluoromethyl)-1H-Pyrazol-1-yl)Pyridine-3-Sulfonamide] | 5.60 to 6.00 | < 5.60 | 
COc1ccc2[nH]nc(C)c2c1NS(=O)(=O)c1ccc(-c2cnn3c2CCC3)nc1 [Example I-295] | < 5.60 | > 6.40 | 
Cc1c(CO)cnn1-c1ccc(S(=O)(=O)Nc2cccc3cnn(C)c23)cn1 [Example I-252, 6-[4-(hydroxymethyl)-5-methylpyrazol-1-yl]-N-(1-methylindazol-7-yl)pyridine-3-sulfonamide] | < 5.60 | > 6.40 | 
COc1ccc(Cc2ccc3c(c2N)c(=O)n(S(=O)(=O)c2ccc(-n4cc(C(F)(F)F)cn4)nc2)n3C)cc1 [Example I-203] | < 5.60 | > 6.40 | 
Cc1cc(-c2ccc(S(=O)(=O)Nc3cccc4cnn(C)c34)cn2)on1 [Example I-98, N-(1-Methyl-1H-Indazol-7-yl)-6-(3-Methylisoxazol-5-yl)Pyridine-3-Sulfonamide] | < 5.60 | > 6.40 | 
Cn1ncc2cccc(NS(=O)(=O)c3ccc(-c4cnn5c4COCC5)nc3)c21 [Example I-270, 6-(6,7-dihydro-4H-pyrazolo[5,1-c][1,4]oxazin-3-yl)-N-(1-methyl-1H-indazol-7-yl)pyridine-3-sulfonamide] | < 5.60 | > 6.40 | 
Cn1ncc2cccc(NS(=O)(=O)c3ccc(-n4cc(CO)cn4)nc3)c21 [Example I-279] | < 5.60 | > 6.40 | 
Cn1ncc2cccc(NS(=O)(=O)c3ccc(-c4cnc(N5CCOCC5)s4)nc3)c21 [Example I-244, N-(1-methyl-1H-indazol-7-yl)-6-(2-morpholinothiazol-5-yl)pyridine-3-sulfonamide] | < 5.60 |  | > 6.40
COc1ccc2cnn(C)c2c1NS(=O)(=O)c1ccc(-n2cc(C(C)(C)O)cn2)nc1 [Example I-278, 6-(4-(2-hydroxypropan-2-yl)-1H-pyrazol-1-yl)-N-(6-methoxy-1-methyl-1H-indazol-7-yl)pyridine-3-sulfonamide] | < 5.60 | < 5.60 | 
